What was measured:
PPARγ [1] = target: T1, PPARγ (Homo sapiens, UniProt P37231); assay: biochemical; format: binding
T1 construct: purchased Life Technologies
T1 sequence (P37231 232-505 limits assumed): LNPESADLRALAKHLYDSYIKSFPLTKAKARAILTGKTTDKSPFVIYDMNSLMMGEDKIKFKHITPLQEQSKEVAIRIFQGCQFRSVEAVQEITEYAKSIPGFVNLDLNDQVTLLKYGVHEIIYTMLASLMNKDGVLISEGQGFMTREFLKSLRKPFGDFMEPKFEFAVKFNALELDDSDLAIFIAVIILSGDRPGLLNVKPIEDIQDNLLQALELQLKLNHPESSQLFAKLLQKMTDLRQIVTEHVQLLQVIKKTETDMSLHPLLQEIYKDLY
Procedure: The indicated concentrations were tested and results were plotted to obtain the polynomial trend on a logarithmic range. […] HEK293 cells were co-transfected with GAL4-PPARγ and GAL4-luc and incubated with the indicated compound concentrations for 6 hours prior to luciferase activity determination. Results are expressed as the fold induction ± S.D. relative to untreated control. […] All experiments are shown as mean ± S.D. from at least three independent experiments.
To determine PPARγ binding activity the PolarScreen^TM PPAR Competitor Assay kit (Life Technologies, CA, USA) was used following the manufacturer’s instructions. […] To study PPARγ transcriptional activity HEK293 cells were seeded in 24-well plates and transiently co-transfected with the expression vector GAL4-PPARγ and the luciferase reporter vector GAL4-luc using Roti-Fect (Carl Roth, Karlsruhe, Germany) following the manufacturer’s instructions. To correct for transfection efficacy, 100 ng Renilla luciferase (pRL-CMV) was also cotransfected. After stimulation, the luciferase activities were quantified using Dual-Luciferase Assay (Promega, Madison, WI, USA).

N2a cells = assay: Glutamate-induced excitotoxicity in N2a cells (MTT); format: cell-based; details: 15 mM glutamate 24 h
Procedure: Figure 1 VCE-003.2 synthesis and characterization. (a) Schematic representation of VCE-003.2 synthesis. […] The indicated concentrations were tested and results were plotted to obtain the polynomial trend on a logarithmic range. IC50 values are indicated within the graph. […]. HEK293 cells were co-transfected with GAL4-PPARγ and GAL4-luc and incubated with the indicated compound concentrations for 6 hours prior to luciferase activity determination. Results are expressed as the fold induction ± S.D. relative to untreated control. (d) N2a cells were incubated with VCE-003 and VCE-003.2 as indicated during 24 hours and cell viability was determined by the MTT assay. Results are expressed as percentage of cell viability against the negative control (100%). (e) N2a cells were pre-treated with the compounds for 30 min and incubated during 24 h with 15 mM glutamate and cell viability determined by MTT. Results are expressed as percentage of cell viability against the negative control (100%). All experiments are shown as mean ± S.D. from at least three independent experiments. Statistics: *^,#,†p < 0.05, **^,##,††p < 0.01 and ***^,###p < 0.001. […] | Briefly, N2a cells were seeded at a density of 1 × 10^3 cells/well in 96-well plates, treated with increasing concentrations of VCE-003 or VCE-003.2 for 24 hours and cell viability was measured by the MTT method. […]. […]

Nrf2 pathway = assay: Nrf2 transcriptional assay (NQO1-ARE-Luc) in N2a cells; format: cell-based; details: 6 hours
Procedure: Nrf2 transcriptional assay: To study Nrf2 transcriptional activity N2a cells were seeded (105/ml) in 24-well plates and transientl y transfected with the plasmid NQO1-ARE-Luc using Roti©-Fect following the manufacturer’s instructions (Carl Roth, Karlsruhe, German y). After 24 hours, cells were incubated wi th the compounds at the concentrations indicated during 6 hours and the luciferase activit y was determined using an Autolumat LB 953 (EG&G Berthold, Bad Wildbad, Germany). Protein content was determined b y the Bradford method to calculate R LU/Pg of protein and the results were expressed as a fold induction over untreated cells.
Supplementary Figure S1. Non-elect rophilic activity for VCE-003.2. (a) Reactive ox ygen species production.
In cu c yt e TM Liv e-Cell Im agin g S ystem. Results are ex pressed as m ean of t otal integrated intensity (ROS positive cells) ± S.D. (b) Effect on Nrf2 transcriptional activity. N2a cells were transientl y trans fected with the NQO1-ARE-Luc plasmid and incubated with the indicated compound concentrations for 6 hours prior to luciferase activit y determination.
Results are expressed as the fold induction ± S.D. relative to untreated control. All the results are representative of at least three independent experiments. Statistics: **p<0.01 VCE-003 treatment vers us Vehicle treated cells.

PPARγ [2] = format: cell-based; details: HEK293, GAL4-PPARγ + GAL4-luc, 6 hours
Procedure: The indicated concentrations were tested and results were plotted to obtain the polynomial trend on a logarithmic range. IC50 values are indicated within the graph. […] HEK293 cells were co-transfected with GAL4-PPARγ and GAL4-luc and incubated with the indicated compound concentrations for 6 hours prior to luciferase activity determination. Results are expressed as the fold induction ± S.D. relative to untreated control. […] All experiments are shown as mean ± S.D. from at least three independent experiments. Statistics: *^,#,†p < 0.05, **^,##,††p < 0.01 and ***^,###p < 0.001. […] To study PPARγ transcriptional activity HEK293 cells were seeded in 24-well plates and transiently co-transfected with the expression vector GAL4-PPARγ and the luciferase reporter vector GAL4-luc using Roti-Fect (Carl Roth, Karlsruhe, Germany) following the manufacturer’s instructions. To correct for transfection efficacy, 100 ng Renilla luciferase (pRL-CMV) was also cotransfected. After stimulation, the luciferase activities were quantified using Dual-Luciferase Assay (Promega, Madison, WI, USA).

CCCCCC1=C(NCC)C(=O)C(C/C=C(\C)CCC=C(C)C)=C(O)C1=O [VCE-003.2]
IC50 (PPARγ [1]): 1200 nM
prevention of glutamate-induced excitotoxicity (N2a cells): able to prevent excitotoxicity induced by glutamate
activation of the Nrf2 pathway (Nrf2 pathway): none of these bioactivities were induced
PPARγ transcriptional activity (transactivation) (PPARγ [2]): induced PPARγ transactivation in a concentration-dependent manner
